According to patent US9618513B2, “Compositions and methods for detecting and treating colorectal cancer” (The Regents of the University of Michigan, priority 2014, dated 2017):

Key:
Format in all cases: cell-based, human
[1] = tested on: primary colon cancer cells; assay: Colon cancer sphere assay, primary colon cancer cells; conditions: in the presence of IL-22, inhibitor 10 uM
Protocol: (A, B) IL-22 is expressed by immune cells in colon cancer tissues. Different cell populations were sorted from colon cancer tissues and IL-22 expression was measured by real time PCR. (5-10 donors, P<0.05). (C) IL-22 is spontaneously released by different immune cell populations in colon cancer tissues. Different CD45^+ immune subsets (10^6/ml) were sorted from colon cancer and blood, and cultured for 12 hours. IL-22 was detected via ELISA. (n=5, *P<0.05). (D, E) IL-22 is expressed by activated CD4^+ T cells in colon cancer tissues. CD45^+ subsets (10^6/ml) were sorted from colon cancer and blood, and were activated with anti-CD3 and anti-CD28 for 2 days. IL-22 was detected with ELISA (D) or intracellular staining (E). (n=5, *P<0.05). […] IL-22 mRNA was detected by real time PCR (F) and protein by ELISA (G). […] IL-22 expression was quantified with real-time PCR in the migrated and non-migrated cells. Results are expressed as the mean relative expression (H). The phenotype of migrated cells, non-migrated cells and control (before migration) was analyzed by FACS (I). […] The mRNA of stem cell core genes was detected by real-time PCR after 6 hours (K) and ALDH activity was detected by FACS after 48 hours (L). […]
(A) IL-22 induces H3K79me2 in colon cancer cells. […] Total histone modifications were analyzed by western blot. […] Sphere numbers were recorded. […] DOT1L complex gene expression was quantified by real-time PCR. […]

ALDH1 = assay: ALDH activity by FACS (aldefluor fluorescence); conditions: DLD-1, HT29 and two primary colon cancer cell lines, IL-22 24 hours
Text: (A), IL-22 is expressed in colon cancer tissues. IL-22 mRNA was detected by real-time PCR in colon cancer tissues and peripheral blood. *P<0.05 compared to blood, 20 colon cancer patients. (B-D), Endogenous IL-22 promotes colon carcinogenesis. Single cells (10^7) isolated from colon cancer tissue were mixed with anti-IL-22 antibody or control mAb, and then subcutaneously injected to NSG mice. Tumor growth (B), incidence (C), and animal survival (D) are shown. (P<0.05 for all, n=5 per group). (E-G) Recombinant IL-22 promotes colon carcinogenesis. DLD-1 colon cancer cells (10^5) were pre-incubated with IL-22 (20 ng/ml) for 1 hour, and then subcutaneously injected to NSG mice. […] ALDH activity was determined by FACS based on aldefluor fluorescence. […] Results are expressed as fold changes of ALDH expression. […] The mRNA of stem cell core gene was detected by real-time PCR (K) and proteins were detected by western blotting (L, M). […]
(A, B) IL-22 is expressed by immune cells in colon cancer tissues. Different cell populations were sorted from colon cancer tissues and IL-22 expression was measured by real time PCR. […] IL-22 was detected via ELISA. […] IL-22 was detected with ELISA (D) or intracellular staining (E). […] IL-22 mRNA was detected by real time PCR (F) and protein by ELISA (G). […] IL-22 expression was quantified with real-time PCR in the migrated and non-migrated cells. […]

DOT1L, AFF4, MLLT10 = assay: DOT1L complex gene expression by real-time PCR; conditions: DLD-1 and primary colon cancer cells, IL-22 12 hours
Protocol: (A) IL-22 induces H3K79me2 in colon cancer cells. Colon cancer cells were treated with IL-22 for 48 hours. Total histone modifications were analyzed by western blot. (B, C) DOT1L inhibitor, EPZ004777 suppresses colon cancer sphere formation induced by IL-22. Colon cancer sphere assay was performed in the presence of IL-22 and EPZ004777. Sphere numbers were recorded. DLD-1 cells (B), primary colon cancer cells (C). (n=5, P<0.05). (D, E) IL-22 stimulates DOT1L complex gene expression. Colon cancer cells were cultured for 12 hours with IL-22. DOT1L complex gene expression was quantified by real-time PCR. DLD-1 cells (D), primary colon cancer cells (E). (n=3, P<0.05). (F) DOT1L knock down results in reduced colon cancer sphere formation induced by IL-22. Colon cancer sphere assay was performed with colon cancer cells expressing sh-DOT1L or vector in the presence of IL-22. Sphere numbers were recorded. (n=5, P<0.05). (G-I), IL-22 causes higher occupancy of H3K79me2 on core stem cell gene promoters. H3K79me2-ChIP assay was performed in DLD-1 colon cancer cells cultured with IL-22. One of 3 experiments is shown. […]
The mRNA was quantified by real-time RT-PCR. […] SYBR Green Master Mix was used to detect fluorescence. Relative expression was calculated according to the Ct value with normalization to GAPDH.

Molecule	sphere formation induced by IL-22 [1]	aldehyde dehydrogenase (ALDH1) activity (ALDH1)	expression of DOT1L, AFF4 (DOT1L, AFF4, MLLT10)
CC(C)N(CCCNC(=O)Nc1ccc(C(C)(C)C)cc1)C[C@H]1O[C@@H](n2ccc3c(N)ncnc32)[C@H](O)[C@@H]1O [EPZ004777]	suppressed	–	–
IL-22: recombinant IL-22 (R&D systems), cytokine interleukin-22	–	increased	consistently promoted
